Assay results as given in patent US11413348B2, “Low molecular weight cationic lipids for oligonucleotide delivery” (SIRNA THERAPEUTICS, INC., priority 2010, dated 2022).

Target: T1, ApoE (Macaca mulatta, UniProt Q28502)
T1 construct: from tissue; host or cells: rhesus serum
Assay: In vitro ApoE binding assay (anti-PEG capture, ApoE ELISA, stem-loop RT-PCR)
Conditions: LNP 4 ug/mL in 90% rhesus serum, 37° C., 20 minutes; estimate of 500 siRNA per LNP
Method: LNPs are incubated at 37° C. in 90% rhesus serum at a final LNP concentration of 4 ug/mL. Incubation is for 20 minutes with orbital rotation. After incubation, the samples are diluted 1:20 in PBS and 100 uL of each diluted sample is aliquoted to wells of an anti-PEG antibody coated 96-well plate (Life Diagnostics Cat. No. P-0001PL. After incubation at room temperature for 1 hour, the plate is washed 5× with 300 uL PBS. After washing, 50 uL of 0.2% Triton X-100 is added to each well and the plate incubated at 37° C. for 10 minutes, followed by shaking on a plate shaker for 1 minute at 750 rpm. Samples are frozen prior to performing the ApoE ELISA and stem loop PCR analysis of samples.
An ApoE ELISA assay is performed to quantitate ApoE bound to the LNPs after incubation in rhesus serum. Anti-ApoE antibody (Milipore, Cat No. AB947) is diluted 1:1000 in PBS and 100 uL of diluted antibody is added to each well of a polystyrene high binding plate. The plate with antibody is incubated overnight at 4° C., after which the plate is washed 2× with 200 uL of PBS. Next, 200 uL of buffer containing 1% BSA and 0.05% Tween-20 in PBS (Incubation Buffer) is added to each well followed by incubation at room temperature for 1 hour. Plates are washed 5× with PBS containing 0.05% Tween-20. Frozen Triton lysis test samples are thawed and diluted 1:6 with incubation buffer and 100 uL of test sample is aliquoted to wells of the ApoE antibody plate. Incubation is for 1 hour at room temperature followed by a 5× wash with PBS containing 0.05% Tween-20. After washing, 100 uL of biotinylated anti-ApoE antibody (Mabtech, Cat. ANo. E887-biotin), diluted 1:500 in incubation buffer, is added to each well and incubated for 1 hour at room temperature, followed by a 5× wash with 0.05% Tween-20 in PBS. 100 uL per well, of Streptavidin-HPR (Thermo, Cat. No. TS-125-HR), is then added and incubated for 1 hour at room temperature. After washing 5× with 0.05% Tween-20 in PBS, 100 uL of TMB Substrate (Thermo, Cat. No. 34028) is added to each well, followed by incubation at room temperature for 20 minutes in the dark. The calorimetric reaction is slopped with 100 uL of TMB Stop Solution (KPL, Cat. No. 50-85-04) and absorbance at 450 nm is determined. An ApoE standard curve is prepared by diluting rhesus Recombinant ApoE in incubation buffer with 0.03% Triton X-100 with concentrations ranging from 100 ng/mL to 0.78 ng/mL. ApoE standards are evaluated in the ELISA in parallel to the test samples. A rhesus serum only (no LNP) control is utilized to obtain a background subtraction for non-LNP dependent ApoE signal in the ELISA.
To normalize to the ApoE bound to the amount of LNP bound to the anti-PEG antibody plate, the amount of siRNA retained in the anti-PEG antibody well is quantitated by stem-loop PCR and related to the number of siRNAs encapsulated per LNP, to give an approximate measure of total LNP particles bound per well.
The standard curve is prepared using the molecular weight of the siRNA (13693 g/mol for ApoB 17063) to calculate the copy number. The high standard should contain 10^11 copies per 3 μl. A 10-fold serial dilution is performed across a row of an assay plate until the lowest standard contains 10^2 copies per 3 μl. Dilute 0.2% Triton X-100 1:80 in water and pipette 20 uL of the diluted Triton X-100 into 10 wells of a 96 well plate. 30 uL of the serial diluted standard curve and mix are added to each well of the plate. 10 uL of the spiked standard curve is used in the reverse transcription reaction.
Triton lysates from the PEG antibody plate capture are diluted 1 to 2000 in nuclease free water. 10 uL of ‘RT-Primer Mix’ (Applied Biosystem's TaqMan MicroRNA Reverse Transcription Kit Cat. No. 4366596) is added to each well of a 96-well Micro-Amp QPCR plate (ABI Cat #N801-0560).
[…] of each test sample (diluted 1 to 2000) or spiked standard curve (above) are aliquoted into the 96-well plate. […]

T1 sequence (Q28502 19-295): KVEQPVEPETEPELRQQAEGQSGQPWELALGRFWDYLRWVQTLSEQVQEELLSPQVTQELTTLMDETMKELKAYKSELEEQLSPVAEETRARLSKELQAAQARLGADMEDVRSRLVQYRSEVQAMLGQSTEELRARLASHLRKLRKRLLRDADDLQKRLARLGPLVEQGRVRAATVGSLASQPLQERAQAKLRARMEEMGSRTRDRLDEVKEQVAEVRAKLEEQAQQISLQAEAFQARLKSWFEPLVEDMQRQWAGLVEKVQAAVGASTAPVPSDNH

| SMILES | ApoE Molecules/LNP |
| --- | --- |
| CCCCC/C=C\C/C=C\CCCCCCCCCC(CCCCCCCCC)CCN(C)C (centres unmarked) [Compound 32, (13Z,16Z)—N,N-dimethyl-3-nonyldocosa-13,16-dien-1-amine] | 12.8 Molecules/LNP |
| CCCCCCCCCC(CCCCCCCC1CC1CCCCCCCC)N(C)C [Compound 33, N,N-dimethyl-1-[(1S,2R)-2-octylcyclopropyl]hepladecan-8-amine] | 18.1 Molecules/LNP |
